# Reference: ChEMBL document CHEMBL6177939, “The role of silicon in drug discovery: a review” (RSC Med Chem, 2024)
# pEC50, pIC50, pKi: −log10 of the molar value.
# Tests used:
# [1] = test system: Bacillus subtilis; experiment: Antibacterial activity against Bacillus subtilis assessed as reduction in bacterial growth incubated for 12 hrs by broth micr-dilution method; assay type: functional
# [2] = test system: Vibrio cholerae; experiment: Antibacterial activity against Vibrio cholerae assessed as inhibition of bacterial growth; assay type: functional
# [3] = test system: Escherichia coli; experiment: Antibacterial activity against Escherichia coli assessed as reduction in bacterial growth incubated for 12 hrs by broth micr-dilution method; assay type: functional
# [4] = test system: Staphylococcus aureus; experiment: Antibacterial activity against Staphylococcus aureus assessed as reduction in bacterial growth incubated for 12 hrs by broth micr-dilution method; assay type: functional
# [5] = test system: Escherichia coli; experiment: Antibacterial activity against Escherichia coli PTCC 1330 assessed as reduction in cell growth incubated for 24 hrs by Mueller-Hinton Broth micro dilution method; assay type: functional
# [6] = test system: Staphylococcus aureus; experiment: Antibacterial activity against Staphylococcus aureus PTCC 1112 assessed as reduction in cell growth incubated for 24 hrs by Mueller-Hinton Broth micro dilution method; assay type: functional
# [7] = test system: Salmonella typhimurium; experiment: Antibacterial activity against Salmonella enterica subsp. enterica serovar Typhimurium PTCC 1609 assessed as reduction in cell growth incubated for 24 hrs by Mueller-Hinton Broth micro dilution method; assay type: functional
# [8] = test system: Pseudomonas aeruginosa; experiment: Antibacterial activity against Pseudomonas aeruginosa PTCC 1074 assessed as reduction in cell growth incubated for 24 hrs by Mueller-Hinton Broth micro dilution method; assay type: functional
# [9] = biological target: Hydroxycarboxylic acid receptor 2 (Rattus norvegicus, UniProt Q80Z39); experiment: Agonist activity at rat GPR109A transfected in T-REX-CHO cells by cAMP assay; assay type: cell-based
# [10] = Agonist activity at rat GPR81 transfected in T-REX-CHO cells by cAMP assay; assay type: cell-based
# [11] = test system: HCT-116; experiment: Antiproliferative activity against human HCT-116 cells assessed as reduction in cell viability incubated for 72 hrs by MTT assay; assay type: functional, cell-based; conditions: HCT-116, 72 h
# [12] = test system: HT-1080; experiment: Cytotoxicity against human HT-1080 cells assessed as reduction in cell growth by measuring lethal concentration for 72 hrs by MTT assay; assay type: functional
# [13] = test system: MG-22A; experiment: Cytotoxicity against mouse MG-22A cells assessed as reduction in cell growth by measuring lethal concentration for 72 hrs by MTT assay; assay type: functional
# [14] = test system: Panel NCI-60 (60 carcinoma cell lines); experiment: Cytotoxicity against human Panel NCI-60 (60 carcinoma cell lines) assessed as reduction in cell growth incubated for 72 hrs by CCK-8 assay; assay type: functional, cell-based
# [15] = biological target: Sigma non-opioid intracellular receptor 1 (Cavia porcellus, UniProt Q60492); experiment: Binding affinity to guinea pig sigma 1 receptor assessed as inhibition constant
# [16] = test system: MG-22A; experiment: Cytotoxicity against mouse MG-22A cells assessed as reduction in cell growth measured for 72 hrs by crystal violet staining based analysis; assay type: functional
# [17] = test system: HT-1080; experiment: Cytotoxicity against human HT-1080 cells assessed as reduction in cell growth measured for 72 hrs by crystal violet staining based analysis; assay type: functional; conditions: HT-1080, 72 h
# [18] = test system: Rhizoctonia solani; experiment: Antifungal activity against Rhizoctonia solani assessed as inhibition of fungal growth at 1 microg/ml relative to control; assay type: functional
# [19] = test system: Human immunodeficiency virus 2; experiment: Antiviral activity against HIV-2 ROD infected in human MT-4 cells assessed as reduction in virus-induced cytopathic effect incubated for 5 days by spectrophotometric based MTT assay; assay type: functional, organism-based; conditions: Human immunodeficiency virus 2, ROD, MT4, 120 h
# [20] = test system: Staphylococcus epidermidis; experiment: Antibacterial activity against Staphylococcus epidermidis assessed as inhibition of bacterial growth incubated for 24 hrs by nutrient agar plate method; assay type: functional
# Hydroxycarboxylic acid receptor 2, sequence (Q80Z39 whole entry): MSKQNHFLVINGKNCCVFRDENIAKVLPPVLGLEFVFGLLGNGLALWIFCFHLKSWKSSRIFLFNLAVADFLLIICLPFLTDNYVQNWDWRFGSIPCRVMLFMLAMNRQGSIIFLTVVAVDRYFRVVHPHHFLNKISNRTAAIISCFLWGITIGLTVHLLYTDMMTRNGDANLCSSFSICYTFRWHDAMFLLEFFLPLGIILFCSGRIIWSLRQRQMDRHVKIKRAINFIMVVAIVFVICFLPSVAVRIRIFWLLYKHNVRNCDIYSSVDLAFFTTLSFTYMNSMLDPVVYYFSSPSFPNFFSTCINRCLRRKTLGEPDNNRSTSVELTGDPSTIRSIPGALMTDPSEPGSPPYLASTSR
# Sigma non-opioid intracellular receptor 1, sequence (Q60492 whole entry): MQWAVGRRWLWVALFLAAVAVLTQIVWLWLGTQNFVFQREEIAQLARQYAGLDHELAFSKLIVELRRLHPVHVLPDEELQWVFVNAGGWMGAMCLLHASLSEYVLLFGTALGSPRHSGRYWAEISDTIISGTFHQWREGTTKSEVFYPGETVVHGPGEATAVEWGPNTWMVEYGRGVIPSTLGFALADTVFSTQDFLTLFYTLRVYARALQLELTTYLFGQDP
smiles,measurement,setting,value
O=c1c(I)cn(Cc2cn(CCC[Si-]345OCC[N+]3(CCO4)CCO5)nn2)c(=O)n1Cc1cn(CCC[Si-]234OCC[N+]2(CCO3)CCO4)nn1 (stereo not drawn),MIC50,[1],0.18 µg/mL
same,MIC50,[2],0.18 µg/mL
same,MIC50,[3],0.18 µg/mL
same,MIC50,[4],0.18 µg/mL
C[Si](C)(C)C(S)(C(=S)CCCCn1nnc(Sc2ccccc2)n1)[Si](C)(C)C,MIC,[5],3.91 µg/mL
same,MIC,[6],3.91 µg/mL
same,MIC,[7],3.91 µg/mL
same,MIC,[8],3.91 µg/mL
CCOc1cc(Cl)c(C(=O)NC(=O)Nc2nc3c(s2)C[Si](C)(C)CC3)cc1N1CCOCC1,pEC50,[9],5.92
same,pEC50,[10],6.00
CC[Si](CC)(CC)OC1OC(=O)C(Br)=C1Br (stereo not drawn),pIC50,[11],5.80
CCCCCCCCCC[Si](C)(C)OCC[N+]1(C)CCc2ccccc2C1.[I-] (stereo not drawn),LC50,[12],< 1 µg/mL
same,LC50,[13],1 µg/mL
C[Si](C)(C)C(S)(C(=S)CCCCn1nnc(SC(=O)c2ccccc2)n1)[Si](C)(C)C,MIC,[5],3.91 µg/mL
same,MIC,[6],3.91 µg/mL
same,MIC,[7],3.91 µg/mL
same,MIC,[8],3.91 µg/mL
CCCCCCCCCCC[Si](C)(C)OCC[N+]1(C)CCc2ccccc2C1.[I-] (stereo not drawn),LC50,[12],< 1 µg/mL
same,LC50,[13],1 µg/mL
CCCCCCCC[Si](C)(C)OCC[N+]1(C)CCc2ccccc2C1.[I-] (stereo not drawn),LC50,[12],< 1 µg/mL
same,LC50,[13],1 µg/mL
CCC[Si](C)(C)Oc1ccc(C(=O)N[C@@H](Cc2ccc(OCc3c(Cl)cccc3Cl)cc2)C(=O)NC2CC(C)(C)NC(C)(C)C2)cc1,pIC50,[14],5.82
CCOc1cc(Cl)c(C(=O)NC(=O)Nc2nc3c(s2)C[Si](c2ccccc2)(c2c(OC)cccc2OC)CC3)cc1-n1cccn1 (stereo not drawn),pEC50,[9],6.33
same,pEC50,[10],6.68
CC[Si](C)(CC)OCC[N+]1(C)CCc2ccccc2C1.[I-] (stereo not drawn),LC50,[12],< 1 µg/mL
same,LC50,[13],2 µg/mL
O=c1c(F)cn(Cc2cn(CCC[Si-]345OCC[N+]3(CCO4)CCO5)nn2)c(=O)n1Cc1cn(CCC[Si-]234OCC[N+]2(CCO3)CCO4)nn1 (stereo not drawn),MIC50,[1],0.18 µg/mL
same,MIC50,[2],0.18 µg/mL
same,MIC50,[3],0.18 µg/mL
same,MIC50,[4],0.18 µg/mL
CCCCSc1nnn(CCCCC(=S)C(S)([Si](C)(C)C)[Si](C)(C)C)n1,MIC,[5],3.91 µg/mL
same,MIC,[6],3.91 µg/mL
same,MIC,[7],3.91 µg/mL
same,MIC,[8],3.91 µg/mL
COc1ccc(CN2CC[Si]3(CCCc4ccccc43)CC2)cc1,pKi,[15],6.52
CCN(CC)CCC[Si](C)(c1ccc([Si](CC)(CC)CC)o1)c1ccc([Si](CC)(CC)CC)o1,IC50,[16],3 µg/mL
same,IC50,[17],3 µg/mL
CN1CCN(CCC[Si](C)(c2ccc([Si](C)(C)C)o2)c2ccc([Si](C)(C)C)o2)CC1,IC50,[16],3 µg/mL
same,IC50,[17],3 µg/mL
Cn1cc(C(=O)C(C#N)c2ccc([Si](C)(C)C)cc2F)c(C(F)F)n1 (stereo not drawn),inhibition at 1 µg/mL,[18],91.2%
CC[Si](CC)(CC)c1ccc([Si](C)(CCCN2CCCCC2)c2ccc([Si](CC)(CC)CC)o2)o1,IC50,[16],3 µg/mL
same,IC50,[17],3 µg/mL
CC(C)(C)[Si](C)(C)OC[C@H]1O[C@@H](n2ccc(=O)[nH]c2=O)[C@H](O[Si](C)(C)C(C)(C)C)[C@]12OS(=O)(=O)C=C2N,EC50,[19],0.114 µg/mL
CCOP(=O)(OCC)C(NC(=O)[C@H](Cc1ccc(-c2ccccc2)cc1)NC(=O)c1ccc(OCC[Si](C)(C)C)cc1)P(=O)(OCC)OCC,pIC50,[14],5.82
CCOc1cc(Cl)c(C(=O)NC(=O)Nc2nc3c(s2)CCCC3)cc1-n1cccn1,pEC50,[9],6.60
same,pEC50,[10],7.74
CCOc1cc(Cl)c(C(=O)NC(=O)Nc2nc3c(s2)C[Si](c2ccccc2)(c2ccc(OC)cc2)CC3)cc1-n1cccn1 (stereo not drawn),pEC50,[9],6.33
same,pEC50,[10],6.68
CCOc1cc(Cl)c(C(=O)NC(=O)Nc2nc3c(s2)C[Si](C)(c2ccc(OC)cc2)CC3)cc1-n1cccn1 (stereo not drawn),pEC50,[9],6.33
same,pEC50,[10],6.68
Cc1cn([C@@H]2O[C@H](CO[Si](C)(C)C(C)(C)C)[C@@]3(OS(=O)(=O)C=C3N)[C@H]2O)c(=O)[nH]c1=O,EC50,[19],> 100 µg/mL
CCOc1cc(Cl)c(C(=O)NC(=O)Nc2nc3c(s2)C[Si](C)(c2c(OC)cccc2OC)CC3)cc1-n1cccn1 (stereo not drawn),pEC50,[9],6.33
same,pEC50,[10],6.68
CCOc1cc(Cl)c(C(=O)NC(=O)Nc2nc3c(s2)CCCC3)cc1N1CCOCC1,pEC50,[10],6.62
C[Si](C)(C)C(S)(C(=S)CCCCn1nnc(SCc2ccccc2)n1)[Si](C)(C)C,MIC,[5],3.91 µg/mL
same,MIC,[6],3.91 µg/mL
same,MIC,[7],3.91 µg/mL
same,MIC,[8],3.91 µg/mL
CCCC[Si](CC)(CCCC)OCC[N+]1(C)CCc2ccccc2C1.[I-] (stereo not drawn),LC50,[12],< 1 µg/mL
same,LC50,[13],2 µg/mL
CC[Si](CC)(CC)c1cccc(CN(Cc2ccccn2)Cc2ccccn2)c1O,MIC,[20],1.2 µg/mL
CCC[Si]1(c2ccc(OC)cc2)CCc2nc(NC(=O)NC(=O)c3cc(-n4cccn4)c(OCC)cc3Cl)sc2C1 (stereo not drawn),pEC50,[9],6.33
same,pEC50,[10],6.68
